Patent publication US20110251063A1, “HETEROCYCLIC DIKETONE DERIVATIVES WITH HERBICIDAL ACTION” (priority 2008, published 2011)

Key:
AMARE = assay: greenhouse post-emergence herbicidal activity against AMARE; type: in vivo, Amaranthus retroflexus; conditions: scale 0 to 100
Text: (§1) The seeds of the test plants were sown separately for each species. For the post-emergence treatment, the test plants were first grown to a height of 3 to 15 cm, depending on the plant habit, and then treated with the active compounds which had been suspended or emulsified in water. For this purpose, the test plants were either sown directly and grown in the same containers, or they were first grown separately as seedlings and transplanted into the test containers a few days prior to treatment. Depending on the species, the plants were kept at 10-25° C. or 20-35° C. The test period extended over 2 to 4 weeks. During this time, the plants were tended, and their response to the individual treatments was evaluated. Evaluation was carried out using a scale from 0 to 100. 100 means no emergence of the plants, or complete destruction of at least the aerial moieties, and 0 means no damage, or normal course of growth. A good herbicidal activity is given at values of at least 70 and a very good herbicidal activity is given at values of at least 85. The plants used in the greenhouse experiments belonged to the following species: [table]

SETFA = assay: greenhouse post-emergence herbicidal activity against SETFA; type: in vivo, Setaria faberi; conditions: application rate 3.0 kg/ha, scale 0 to 100
Text: as §1

ABUTH = assay: greenhouse pre-emergence herbicidal activity against ABUTH; type: in vivo, Abutilon theophrasti; conditions: application rate 3.0 kg/ha, scale 0 to 100
Text: (§2) The seeds of the test plants were sown separately for each species. For the pre-emergence treatment, the active compounds, which had been suspended or emulsified in water, were applied directly after sowing by means of finely distributing nozzles. The containers were irrigated gently to promote germination and growth and subsequently covered with transparent plastic hoods until the plants had rooted. This cover caused uniform germination of the test plants, unless this has been impaired by the active compounds. Depending on the species, the plants were kept at 10-25° C. or 20-35° C. The test period extended over 2 to 4 weeks. During this time, the plants were tended, and their response to the individual treatments was evaluated. Evaluation was carried out using a scale from 0 to 100. 100 means no emergence of the plants, or complete destruction of at least the aerial moieties, and 0 means no damage, or normal course of growth. A good herbicidal activity is given at values of at least 70 and a very good herbicidal activity is given at values of at least 85. The plants used in the greenhouse experiments belonged to the following species: [table]

GALAP = assay: greenhouse post-emergence herbicidal activity against GALAP; type: in vivo, Galium aparine; conditions: application rate 0.25 kg/ha, scale 0 to 100
Text: as §1

CHEAL = assay: greenhouse post-emergence herbicidal activity against CHEAL; type: in vivo, Chenopodium album; conditions: scale 0 to 100
Text: as §1

SETIT = assay: greenhouse pre-emergence herbicidal activity against SETIT; type: in vivo, Setaria italica; conditions: application rate 3.0 kg/ha, scale 0 to 100
Text: as §2

ALOMY = assay: greenhouse post-emergence herbicidal activity against ALOMY; type: in vivo, Alopecurus myosuroides; conditions: application rate 3.0 kg/ha, scale 0 to 100
Text: as §1

## COC(=O)C(C(=O)c1ncccc1O)c1ccccc1C(F)(F)F (stereo not drawn) [I-1, methyl 3-(3-hydroxypyridin-2-yl)-3-oxo-2-(2-trifluoromethylphenyl)propionate]
AMARE; application rate 0.25 kg/ha
  herbicidal activity against AMARE: Very good
SETFA
  herbicidal activity against SETFA: very good (a very good herbicidal activity is given at values of at least 85)
ABUTH
  herbicidal activity against ABUTH: good (A good herbicidal activity is given at values of at least 70)
GALAP
  herbicidal activity against GALAP: very good (a very good herbicidal activity is given at values of at least 85)
CHEAL; application rate 0.25 kg/ha
  herbicidal activity against CHEAL: Very good
SETIT
  herbicidal activity against SETIT: very good (a very good herbicidal activity is given at values of at least 85)
ALOMY
  herbicidal activity against ALOMY: good (A good herbicidal activity is given at values of at least 70)

## COC(=O)C(=C(OC(C)=O)c1ncccc1OC(C)=O)c1ccccc1C(F)(F)F [I-2, methyl 3-acetoxy-3-(3-acetoxypyridin-2-yl)-2-(2-trifluoromethylphenyl)acrylate]
AMARE; application rate 0.5 kg/ha
  herbicidal activity against AMARE: Very good
CHEAL; application rate 0.5 kg/ha
  herbicidal activity against CHEAL: Very good
